Reference: patent US10945435B2, “Imidazopyrimidine derivatives with sulfur containing phenyl and pyridyl substituents” (SYNGENTA PARTICIPATIONS AG, priority 2017, dated 2021)

Columns and labels:
Type in all cases: in vivo
[1] = test system: Bemisia tabaci (Cotton White Fly); assay: Example B1 Bemisia tabaci feeding/contact activity; conditions: foliar, 144 h, application rate of 200 ppm, adult white flies on sprayed cotton leaf discs, 6 days after incubation
Method: Bemisia tabaci (Cotton White Fly): Feeding/Contact Activity
Cotton leaf discs were placed on agar in 24-well microtiter plates and sprayed with aqueous test solutions prepared from 10,000 ppm DMSO stock solutions. After drying the leaf discs were infested with adult white flies. The samples were checked for mortality 6 days after incubation.

[2] = test system: Frankliniella occidentalis (Western Flower Thrips); assay: Example B8 Frankliniella occidentalis feeding/contact activity; conditions: foliar, 168 h, application rate of 200 ppm, mixed-age population on sprayed sunflower leaf discs, 7 days after infestation
Method: Frankliniella occidentalis (Western Flower Thrips): Feeding/Contact Activity
Sunflower leaf discs were placed on agar in 24-well microtiter plates and sprayed with aqueous test solutions prepared from 10,000 DMSO stock solutions. After drying the leaf discs were infested with a Frankliniella population of mixed ages. The samples were assessed for mortality 7 days after infestation.

[3] = test system: Euschistus heros (Neotropical Brown Stink Bug); assay: Example B7 Euschistus heros feeding/contact activity; conditions: 120 h, application rate of 200 ppm, N2 nymphs on sprayed soybean leaves, 5 days after infestation
Method: Euschistus heros (Neotropical Brown Stink Bug): Feeding/Contact Activity
(§1) Soybean leaves on agar in 24-well microtiter plates were sprayed with aqueous test solutions prepared from 10,000 ppm DMSO stock solutions. After drying the leaves were infested with N2 nymphs. The samples were assessed for mortality 5 days after infestation.

[4] = test system: Plutella xylostella (Diamond Back Moth); assay: Example B11 Plutella xylostella growth inhibition activity; conditions: 120 h, application rate of 200 ppm, L2 larvae on treated artificial diet, 5 days after infestation
Method: Plutella xylostella (Diamond Back Moth): Growth Inhibition Activity
(§2) 24-well microtiter plates with artificial diet were treated with aqueous test solutions prepared from 10,000 ppm DMSO stock solutions by pipetting. After drying, the plates were infested with L2 larvae (10 to 15 per well). The samples were assessed for growth inhibition in comparison to untreated samples 5 days after infestation. Control of Plutella xylostella by a test sample is given when the growth inhibition is higher than the untreated sample.

[5] = test system: Diabrotica balteata (Corn Root Worm); assay: Example B2 Diabrotica balteata mortality and growth inhibition; conditions: 96 h, application rate of 200 ppm, L2 larvae on sprayed maize sprouts, 4 days after infestation, read-out: effect in at least one of the two categories (mortality or growth inhibition)
Method: Diabrotica balteata (Corn Root Worm)
(§3) Maize sprouts placed onto an agar layer in 24-well microtiter plates were treated with aqueous test solutions prepared from 10,000 ppm DMSO stock solutions by spraying. After drying, the plates were infested with L2 larvae (6 to 10 per well). The samples were assessed for mortality and growth inhibition in comparison to untreated samples 4 days after infestation.

[6] = test system: Plutella xylostella (Diamond Back Moth); assay: Example B13 Plutella xylostella mortality and growth inhibition; conditions: 120 h, application rate of 200 ppm, L2 larvae on treated artificial diet, 5 days after infestation, read-out: effect in at least one of the two categories (mortality or growth inhibition)
Method: Plutella xylostella (Diamond Back Moth)
as §2, with “for mortality and” for “for”, “infestation.” for “infestation. Control of Plutella xylostella by a test sample is given when the growth inhibition is higher than the untreated sample.”

[7] = test system: Myzus persicae (Green Peach Aphid); assay: Example B9 Myzus persicae feeding/contact activity; conditions: foliar, 144 h, application rate of 200 ppm, mixed-age aphids on sprayed sunflower leaf discs, 6 days after infestation
Method: Myzus persicae (Green Peach Aphid): Feeding/Contact Activity
Sunflower leaf discs were placed onto agar in a 24-well microtiter plate and sprayed with aqueous test solutions prepared from 10,000 ppm DMSO stock solutions. After drying, the leaf discs were infested with an aphid population of mixed ages. The samples were assessed for mortality 6 days after infestation.

[8] = test system: Myzus persicae (Green Peach Aphid); assay: Example B10 Myzus persicae systemic activity; conditions: 144 h, test rate of 24 ppm, roots of infested pea seedlings in test solution, 6 days
Method: Myzus persicae (Green Peach Aphid). Systemic Activity
Roots of pea seedlings infested with an aphid population of mixed ages were placed directly into aqueous test solutions prepared from 10,000 DMSO stock solutions. The samples were assessed for mortality 6 days after placing seedlings into test solutions.

[9] = test system: Diabrotica balteata (Corn Root Worm); assay: Example B4 Diabrotica balteata mortality; conditions: 96 h, application rate of 200 ppm, L2 larvae on sprayed maize sprouts, 4 days after infestation
Method: Diabrotica Balteata (Corn Root Worm):
as §3, with “mortality” for “mortality and growth inhibition in comparison to untreated samples”

[10] = test system: Euschistus heros (Neotropical Brown Stink Bug); assay: Example B5 Euschistus heros mortality and growth inhibition; conditions: 120 h, application rate of 200 ppm, N2 nymphs on sprayed soybean leaves, 5 days after infestation, read-out: effect in at least one of the two categories (mortality or growth inhibition)
Method: Euschistus heros (Neotropical Brown Stink Bug)
as §1, with “mortality and growth inhibition in comparison to untreated samples” for “mortality”

[11] = test system: Spodoptera littoralis (Egyptian Cotton Leaf Worm); assay: Example B16 Spodoptera littoralis feeding/contact activity; conditions: foliar, 72 h, application rate of 200 ppm, L1 larvae on sprayed cotton leaf discs, 3 days after infestation
Method: Spodoptera littoralis (Egyptian Cotton Leaf Worm): Feeding/Contact Activity
(§4) Cotton leaf discs were placed onto agar in 24-well microtiter plates and sprayed with aqueous test solutions prepared from 10,000 ppm DMSO stock solutions. After drying the leaf discs were infested with five L1 larvae. The samples were assessed for mortality 3 days after infestation.

[12] = test system: Spodoptera littoralis (Egyptian Cotton Leaf Worm); assay: Example B14 Spodoptera littoralis anti-feeding activity; conditions: foliar, 72 h, application rate of 200 ppm, L1 larvae on sprayed cotton leaf discs, 3 days after infestation, read-out: control (anti-feeding effect)
Method: Spodoptera littoralis (Egyptian Cotton Leaf Worm): Anti-Feeding Activity
as §4, with “anti-feeding effect in comparison to untreated samples” for “mortality”, “infestation. Control of Spodoptera littoralis by a test sample is given when the anti-feedant effect is higher than the untreated sample.” for “infestation.”

[13] = test system: Spodoptera littoralis (Egyptian Cotton Leaf Worm); assay: Example B15 Spodoptera littoralis growth inhibition activity; conditions: foliar, 72 h, application rate of 200 ppm, L1 larvae on sprayed cotton leaf discs, 3 days after infestation, read-out: control (growth inhibition)
Method: Spodoptera littoralis (Egyptian Cotton Leaf Worm): Growth Inhibition Activity
as §4, with “growth inhibition in comparison to untreated samples” for “mortality”, “infestation. Control of Spodoptera littoralis by a test sample is given when the growth inhibition is higher than the untreated sample.” for “infestation.”

[14] = test system: Plutella xylostella (Diamond Back Moth); assay: Example B12 Plutella xylostella feeding/contact activity; conditions: 120 h, application rate of 200 ppm, L2 larvae on treated artificial diet, 5 days after infestation
Method: Plutella xylostella (Diamond Back Moth): Feeding/Contact Activity
24-well microtiter plates with artificial diet were treated with aqueous test solutions prepared from 10,000 ppm DMSO stock solutions by pipetting. After drying, the plates were infested with L2 larvae (10 to 15 per well). The samples were assessed for mortality 5 days after infestation.

CCS(=O)(=O)c1cc(OCSC)cnc1-c1cn2cnc(C(F)(F)F)cc2n1 [Compound P16, 2-[3-ethylsulfonyl-5-(methylsulfanylmethoxy)-2-pyridyl]-7-(trifluoromethyl)imidazo[1,2-c]pyrimidine]
≥ 80%: mortality at 200 ppm [1] | mortality at 200 ppm [2] | mortality at 200 ppm [3] | inhibition at 200 ppm [4] | percent effect (mortality or growth inhibition) at 200 ppm [5] | percent effect (mortality or growth inhibition) at 200 ppm [6] | mortality at 200 ppm [7] | mortality at 24 ppm [8] | mortality at 200 ppm [9] | percent effect (mortality or growth inhibition) at 200 ppm [10] | mortality at 200 ppm [11] | pest or weed control at 200 ppm [12]

CCS(=O)(=O)c1cc(OC)cnc1-c1cn2cnc(C(F)(F)F)cc2n1 [Compound P9, 2-(3-ethylsulfonyl-5-methoxy-2-pyridyl)-7-(trifluoromethyl)imidazo[1,2-c]pyrimidine]
≥ 80%: inhibition at 200 ppm [13] | inhibition at 200 ppm [4] | percent effect (mortality or growth inhibition) at 200 ppm [5] | percent effect (mortality or growth inhibition) at 200 ppm [6] | mortality at 200 ppm [7] | mortality at 24 ppm [8] | mortality at 200 ppm [9] | mortality at 200 ppm [11] | mortality at 200 ppm [14] | pest or weed control at 200 ppm [12]

CCS(=O)(=O)c1cc(OC(C)(C)C(N)=O)cnc1-c1cn2cnc(C(F)(F)F)cc2n1 [Compound P12, 2-[[5-ethylsulfonyl-6-[7-(trifluoromethyl)imidazo[1,2-c]pyrimidin-2-yl]-3-pyridyl]oxy]-2-methyl-propanamide]
≥ 80%: inhibition at 200 ppm [13] | mortality at 200 ppm [3] | mortality at 200 ppm [7] | percent effect (mortality or growth inhibition) at 200 ppm [10]

CCS(=O)(=O)c1cc(OCC(F)F)cnc1-c1cn2cnc(SC(F)(F)F)cc2n1 [Compound P4, 2-[5-(2,2-difluoroethoxy)-3-ethylsulfonyl-2-pyridyl]-7-(trifluoromethylsulfanyl)imidazo[1,2-c]pyrimidine]
≥ 80%: mortality at 200 ppm [1] | inhibition at 200 ppm [13] | mortality at 200 ppm [3] | inhibition at 200 ppm [4] | percent effect (mortality or growth inhibition) at 200 ppm [5] | percent effect (mortality or growth inhibition) at 200 ppm [6] | mortality at 200 ppm [7] | mortality at 200 ppm [9] | percent effect (mortality or growth inhibition) at 200 ppm [10] | mortality at 200 ppm [11] | mortality at 200 ppm [14] | pest or weed control at 200 ppm [12]

CCS(=O)(=O)c1cc(OC(C)(C)C#N)cnc1-c1cn2cnc(C(F)(F)F)cc2n1 [Compound P13, 2-[[5-ethylsulfonyl-6-[7-(trifluoromethyl)imidazo[1,2-c]pyrimidin-2-yl]-3-pyridyl]oxy]-2-methyl-propanenitrile]
≥ 80%: mortality at 200 ppm [1] | mortality at 200 ppm [2] | mortality at 200 ppm [3] | inhibition at 200 ppm [4] | percent effect (mortality or growth inhibition) at 200 ppm [5] | percent effect (mortality or growth inhibition) at 200 ppm [6] | mortality at 200 ppm [7] | mortality at 200 ppm [9] | percent effect (mortality or growth inhibition) at 200 ppm [10] | mortality at 200 ppm [11] | mortality at 200 ppm [14] | pest or weed control at 200 ppm [12]

CCS(=O)(=O)c1cc(OC)cnc1-c1cn2cnc(SC(F)(F)F)cc2n1 [Compound P5, 2-(3-ethylsulfonyl-5-methoxy-2-pyridyl)-7-(trifluoromethylsulfanyl)imidazo[1,2-c]pyrimidine]
≥ 80%: inhibition at 200 ppm [13] | mortality at 200 ppm [3] | percent effect (mortality or growth inhibition) at 200 ppm [5] | percent effect (mortality or growth inhibition) at 200 ppm [6] | mortality at 200 ppm [7] | mortality at 200 ppm [9] | percent effect (mortality or growth inhibition) at 200 ppm [10] | mortality at 200 ppm [11] | mortality at 200 ppm [14] | pest or weed control at 200 ppm [12]
